Data published in patent publication US10781215B2, “Heterobicyclic compounds useful as modulators of IL-12, IL-23 and/or IFNα responses” (BRISTOL-MYERS SQUIBB COMPANY, priority 2016, dated 2020).

Legend:
[1] = system: IL-23 stimulated Kit225 T cells (STAT-dependent luciferase reporter); test: Kit225 T cell assay, IL-23 stimulated STAT-dependent luciferase reporter; assay type: cell-based; settings: 20 ng/mL human recombinant IL-23, 5-6 hours
Protocol: (§1) Kit225 T cells with a stably-integrated STAT-dependent luciferase reporter were plated in RPMI (Gibco) containing 10% heat-inactivated FBS (Gibco) and 100 U/mL PenStrep (Gibco). The cells were then stimulated with either 20 ng/mL human recombinant IL-23 or 200 U/mL human recombinant IFNα (PBL InterferonSource) for 5-6 hours. Luciferase expression was measured using the STEADY-GLO® Luciferase Assay System (Promega) according to the manufacturer's instructions. Inhibition data were calculated by comparison to no inhibitor control wells for 0% inhibition and non-stimulated control wells for 100% inhibition. Dose response curves were generated to determine the concentration required to inhibit 50% of cellular response (IC50) as derived by non-linear regression analysis.

[2] = target: T1, human Tyk2 (amino acids 575-869, His-tagged) (Homo sapiens, UniProt P29597); test: Probe displacement assay (SPA format); assay type: binding; settings: radiolabeled probe 40 nM, Tyk2 2.5 nM
T1 construct: made in house
Protocol: Probe Displacement Assay (SPA Format) The probe displacement assay is conducted as follows: In a […], test compounds along with recombinantly expressed His-tagged protein corresponding to amino acids 575-869 of human Tyk2 (sequence shown below) at 2.5 nM, 40 nM ((R)—N-(1-(3-(8-methyl-5-(methylamino)-8H-imidazo [4,5-d]thiazolo [5,4-b]pyridin-2-yl)phenyl)ethyl)-2-([^3H]methylsulfonyl)benzamide) (preparation described below) and 80 μg/mL Copper His-Tag scintillation proximity assay beads (Perkin Elmer, Catalog # RPNQ0095) in 50 mM HEPES, pH 7.5, containing 100 μg/mL bovine serum albumin and 5% DMSO were incubated for 30 minutes at room temperature. The amount of radiolabeled probe (preparation described below) bound to Tyk2 was then quantified by scintillation counting, and the inhibition by the test compound calculated by comparison to wells either with no inhibitor (0% inhibition) or without Tyk2 (100% inhibition). The EC50 value is defined as the concentration of test compound required to inhibit radiolabeled probe binding by 50%. Probe Displacement Assay (HTRF Format)

[3] = system: IFNα stimulated Kit225 T cells (STAT-dependent luciferase reporter); test: Kit225 T cell assay, IFNα stimulated STAT-dependent luciferase reporter; assay type: cell-based; settings: 200 U/mL human recombinant IFNα, 5-6 hours
Protocol: as §1

T1 sequence (P29597 with tags, fused parts or gaps): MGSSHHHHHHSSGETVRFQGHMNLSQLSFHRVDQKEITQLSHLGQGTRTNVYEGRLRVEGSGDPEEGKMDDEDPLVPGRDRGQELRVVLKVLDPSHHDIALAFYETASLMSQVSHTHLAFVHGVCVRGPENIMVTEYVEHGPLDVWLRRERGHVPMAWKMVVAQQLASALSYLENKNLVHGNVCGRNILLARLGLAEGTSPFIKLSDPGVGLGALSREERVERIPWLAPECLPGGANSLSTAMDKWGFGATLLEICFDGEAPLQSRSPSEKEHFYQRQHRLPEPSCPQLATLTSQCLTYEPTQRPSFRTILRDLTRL

IC50 [1] | EC50 [2] | IC50 [3] | Compound
1950 nM | 21 nM | 1470 nM | Cc1nc2c(Nc3ccccc3S(C)(=O)=O)cc(Nc3ccc(C(=O)N4CCOCC4)cn3)nc2[nH]1 [Example 8, 7-N-(2-methanesulfonylphenyl)-2-methyl-5-N-[5-(morpholine-4-carbonyl)pyridin-2-yl]-3H-imidazo[4,5-b]pyridine-5,7-diamine]
8070 nM | 509 nM | 5180 nM | COc1ccccc1Nc1cc(Nc2ccc(F)cn2)nc2[nH]c(C)nc12 [Example 38, 5-N-(5-fluoropyridin-2-yl)-7-N-(2-methoxyphenyl)-2-methyl-3H-imidazo[4,5-b]pyridine-5,7-diamine]
3880 nM | 432 nM | 1040 nM | COc1ccccc1Nc1cc(Nc2ccc(N3CCOCC3)cn2)nc2[nH]c(C)nc12 [Example 37, 7-N-(2-methoxyphenyl)-2-methyl-5-N-[5-(morpholin-4-yl)pyridin-2-yl]-3H-imidazo[4,5-b]pyridine-5,7-diamine]
1230 nM | 15 nM | 636 nM | Cc1nc2c(Nc3ccccc3S(C)(=O)=O)cc(Nc3ccc(N4CCCC4=O)cn3)nc2[nH]1 [Example 24, 1-[6-({7-[(2-methanesulfonylphenyl)amino]-2-methyl-3H-imidazo[4,5-b]pyridin-5-yl}amino)pyridin-3-yl]pyrrolidin-2-one]
3140 nM | 814 nM | 5130 nM | COc1ccccc1Nc1cc(NC(=O)C2CC2)nc2[nH]c(C)nc12 [Example 35, N-{7-[(2-methoxyphenyl)amino]-2-methyl-3H-imidazo[4,5-b]pyridin-5-yl}cyclopropanecarboxamide]
738 nM | 38 nM | 1240 nM | COc1c(Nc2cc(Nc3ccc(F)cn3)nc3[nH]c(C)nc23)cccc1-c1ncn(C)n1 [Example 40, 5-N-(5-fluoropyridin-2-yl)-7-N-[2-methoxy-3-(1-methyl-1H-1,2,4-triazol-3-yl)phenyl]-2-methyl-3H-imidazo[4,5-b]pyridine-5,7-diamine]
90 nM | 14 nM | 128 nM | COc1ccc(Nc2cc(Nc3ccccc3S(C)(=O)=O)c3nc(C)[nH]c3n2)nc1 [Example 16, 7-N-(2-methanesulfonylphenyl)-5-N-(5-methoxypyridin-2-yl)-2-methyl-3H-imidazo[4,5-b]pyridine-5,7-diamine]
3010 nM | 17 nM | 2720 nM | COc1c(Nc2cc(NC(=O)C3CC3)nc3[nH]c(C)nc23)cccc1-c1ncn(C)n1 [Example 39, N-(7-{[2-methoxy-3-(1-methyl-1H-1,2,4-triazol-3-yl)phenyl]amino}-2-methyl-3H-imidazo[4,5-b]pyridin-5-yl)cyclopropanecarboxamide]
327 nM | 4 nM | 123 nM | Cc1nc2c(Nc3ccccc3S(C)(=O)=O)cc(Nc3ccn4nccc4n3)nc2[nH]1 [Example 27, 7-N-(2-methanesulfonylphenyl)-2-methyl-5-N-{pyrazolo[1,5-a]pyrimidin-5-yl}-3H-imidazo[4,5-b]pyridine-5,7-diamine]
7860 nM | 11 nM | 6080 nM | Cc1nc2c(Nc3ccccc3S(C)(=O)=O)cc(Nc3ccc(C(N)=O)cn3)nc2[nH]1 [Example 14, 6-({7-[(2-methanesulfonylphenyl)amino]-2-methyl-3H-imidazo[4,5-b]pyridin-5-yl}amino)pyridine-3-carboxamide]
357 nM | 30 nM | 818 nM | Cc1nc2c(Nc3ccccc3S(C)(=O)=O)cc(Nc3cnc(C(F)(F)F)cn3)nc2[nH]1 [Example 12, 7-N-(2-methanesulfonylphenyl)-2-methyl-5-N-[5-(trifluoromethyl)pyrazin-2-yl]-3H-imidazo[4,5-b]pyridine-5,7-diamine]
824 nM | 291 nM | 1520 nM | COc1ccccc1Nc1cc(Nc2cc(C)nc(C)n2)nc2[nH]c(C)nc12 [Example 36, 5-N-(2,6-dimethylpyrimidin-4-yl)-7-N-(2-methoxyphenyl)-2-methyl-3H-imidazo[4,5-b]pyridine-5,7-diamine]
205 nM | 7 nM | 126 nM | Cc1nc2c(Nc3ccccc3S(C)(=O)=O)cc(Nc3ccc(C#N)c(C)n3)nc2[nH]1 [Example 25, 6-({7-[(2-methanesulfonylphenyl)amino]-2-methyl-3H-imidazo[4,5-b]pyridin-5-yl}amino)-2-methylpyridine-3-carbonitrile]
235 nM | 12 nM | 105 nM | Cc1nc2c(Nc3ccccc3S(C)(=O)=O)cc(Nc3cc(C)c(F)cn3)nc2[nH]1 [Example 31, 5-N-(5-fluoro-4-methylpyridin-2-yl)-7-N-(2-methanesulfonylphenyl)-2-methyl-3H-imidazo[4,5-b]pyridine-5,7-diamine]
718 nM | 14 nM | 285 nM | Cc1nc2c(Nc3ccccc3S(C)(=O)=O)cc(NC(=O)C3CC3)nc2[nH]1 [Example 7, N-{7-[(2-methanesulfonylphenyl)amino]-2-methyl-3H-imidazo[4,5-b]pyridin-5-yl}cyclopropanecarboxamide]
1470 nM | 158 nM | 1420 nM | CCc1nc2c(Nc3ccccc3S(C)(=O)=O)cc(Nc3ccc(F)cn3)nc2[nH]1 [Example 51, 2-ethyl-5-N-(5-fluoropyridin-2-yl)-7-N-(2-methanesulfonylphenyl)-3H-imidazo[4,5-b]pyridine-5,7-diamine]
275 nM | 12 nM | 190 nM | Cc1nc2c(Nc3ccccc3S(C)(=O)=O)cc(Nc3cc(C#N)ccn3)nc2[nH]1 [Example 3, 2-({7-[(2-methanesulfonylphenyl)amino]-2-methyl-3H-imidazo[4,5-b]pyridin-5-yl}amino)pyridine-4-carbonitrile]
480 nM | 19 nM | 732 nM | COc1ccc(Nc2cc(Nc3ccccc3S(C)(=O)=O)c3nc(C)[nH]c3n2)nn1 [Example 19, 7-N-(2-methanesulfonylphenyl)-5-N-(6-methoxypyridazin-3-yl)-2-methyl-3H-imidazo[4,5-b]pyridine-5,7-diamine]
447 nM | 37 nM | 371 nM | COc1cnc(Nc2cc(Nc3ccccc3S(C)(=O)=O)c3nc(C)[nH]c3n2)cn1 [Example 6, 7-N-(2-methanesulfonylphenyl)-5-N-(5-methoxypyrazin-2-yl)-2-methyl-3H-imidazo[4,5-b]pyridine-5,7-diamine]
104 nM | 15 nM | 128 nM | Cc1nc2c(Nc3ccccc3S(C)(=O)=O)cc(Nc3cc(F)ccn3)nc2[nH]1 [Example 17, 5-N-(4-fluoropyridin-2-yl)-7-N-(2-methanesulfonylphenyl)-2-methyl-3H-imidazo[4,5-b]pyridine-5,7-diamine]
185 nM | 9 nM | 190 nM | Cc1nc2c(Nc3ccccc3S(C)(=O)=O)cc(Nc3ccc(C#N)cn3)nc2[nH]1 [Example 13, 6-({7-[(2-methanesulfonylphenyl)amino]-2-methyl-3H-imidazo[4,5-b]pyridin-5-yl}amino)pyridine-3-carbonitrile]
70 nM | 9 nM | 53 nM | Cc1nc2c(Nc3ccccc3S(C)(=O)=O)cc(Nc3cc(C)c(C#N)c(C)n3)nc2[nH]1 [Example 28, 6-({7-[(2-methanesulfonylphenyl)amino]-2-methyl-3H-imidazo[4,5-b]pyridin-5-yl}amino)-2,4-dimethylpyridine-3-carbonitrile]
407 nM | 53 nM | 401 nM | Cc1ccnc(Nc2cc(Nc3ccccc3S(C)(=O)=O)c3nc(C)[nH]c3n2)c1 [Example 20, 7-N-(2-methanesulfonylphenyl)-2-methyl-5-N-(4-methylpyridin-2-yl)-3H-imidazo[4,5-b]pyridine-5,7-diamine]
81 nM | 5 nM | 44 nM | Cc1nc2c(Nc3ccccc3S(C)(=O)=O)cc(Nc3cccc(C(F)(F)F)n3)nc2[nH]1 [Example 23, 7-N-(2-methanesulfonylphenyl)-2-methyl-5-N-[6-(trifluoromethyl)pyridin-2-yl]-3H-imidazo[4,5-b]pyridine-5,7-diamine]
1410 nM | 107 nM | 4260 nM | CCc1nc2c(Nc3ccccc3S(C)(=O)=O)cc(Nc3cc(C)nc(C)n3)nc2[nH]1 [Example 52, 5-N-(2,6-dimethylpyrimidin-4-yl)-2-ethyl-7-N-(2-methanesulfonylphenyl)-3H-imidazo[4,5-b]pyridine-5,7-diamine]
